IC50 data for 7 molecules are collected here from article PMC12224939, “Trypstatin as a Novel TMPRSS2 Inhibitor with Broad‐Spectrum Efficacy against Corona and Influenza Viruses” (Advanced Science, 2025).

The test system of assay [1] is lentiviral pseudoparticles harboring the SARS-CoV-2 Hu-1 spike. The assay is described as follows: microbe, parasite or virus in culture. The conditions noted are these: Severe acute respiratory syndrome coronavirus 2, Caco-2, 48 h, read-out: IC50, SARS-CoV-2 spike-driven pseudoparticle entry, Caco-2 cells, Hu-1 spike, luciferase 48 h after transduction.
Another assay concerns SARS-CoV-2 B.1 D614G. The conditions noted are these: read-out: anti-viral IC50 (±SEM), SARS-CoV-2 B.1.
Assay [2] concerns lentiviral pseudoparticles harboring the SARS-CoV-2 Hu-1 spike.
Where [3] appears, read: read-out: IC50, SARS-CoV-2 spike-driven pseudoparticle entry, Caco-2 cells, luciferase 48 h after transduction.

Structures can show the parent of a compound that is named as a salt. Where two headings read alike, the source gives them in different places. Bridge positions count the residues as written; N and C are the ends. Ends that are not written are not given here.

Usually IC50 stands for the concentration that gives 50% inhibition. As for `CN(C)C(=O)COC(=O)Cc1ccc(OC(=O)c2ccc(NC(=N)N)cc2)cc1` [Camostat mesylate], the figures for the IC50 (in assay [1]; in the assay with SARS-CoV-2 B.1 D614G) were 93.8 ± 6 nM and 4.1 ± 2 nM, respectively. Take `CC(=O)NCC(=O)N[C@@H](CCC(N)=O)C(=O)N[C@@H](Cc1ccccc1)C(=O)N[C@@H](CCCN=C(N)N)C(=O)c1nc2ccccc2s1` [MM3122, reference compound]: the concentration for half-maximal inhibition (IC50) in assay [2] (setting [3]) came to 31.2 ± 3 nM. Consider `N=C(N)c1ccc2cc(OC(=O)c3ccc(N=C(N)N)cc3)ccc2c1` [Nafamostat mesylate], for which the IC50 in assay [1] turned out to be 14.4 ± 1 nM. Consider Antitrypsin, for which the IC50 in assay [2] (read-out: IC50, SARS-CoV-2 spike-driven pseudoparticle entry, Caco-2 cells, luciferase 48 h after transduction, listed as α‐1‐antitrypsin) came out at 27400 ± 4100 nM. For the molecule Aprotinin, the half-maximal inhibitory concentration (IC50) in assay [2] (setting [3]) was found to be 427 ± 30 nM.

As to “CNLPIVRGPCRAFIQLWAFDAVKGKCVLFPYGGCQGNGNKFYSEKECREYC (disulfide 1-51, 10-34, 26-47) [Bikunin KD 2]”, the IC50 in assay [2] (setting [3]) is 170 ± 20 nM.

B1: Bikunin (protein, UniProt P02760 206-352, looked up)
Inter-alpha-trypsin inhibitor …: AVLPQEEEGSGGGQLVTEVTKKEDSCQLGYSAGPCMGMTSRYFYNGTSMACETFQYGGCMGNGNNFVTEKECLQTCRTVAACNLPIVRGPCRAFIQLWAFDAVKGKCVLFPYGGCQGNGNKFYSEKECREYCGVPGDGDEELLRFSN
modifications: Inter-alpha-trypsin inhibitor light chain
Consider B1, for which the IC50 in assay [2] (setting [3]) was found to be 6100 ± 1200 nM.
